Test results: patent US20220046923A1, “HERBICIDAL CINNOLINIUM COMPOUNDS” (SYNGENTA CROP PROTECTION AG, priority 2018, published 2022)

Experiments:
Assay in all cases: Post-emergence efficacy, glasshouse spray test
Type in all cases: in vivo
[1] = test system: Chenopodium album (CHEAL); details: Chenopodium album, post-emergence, 312 h, evaluated after 13 days, read-out: Control of weed species CHEAL after post-emergence application (100=total damage to plant; 0=no damage to plant); for pest or weed control at 500 g/ha: application rate 500 g/Ha
Outline: (§1)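 Seeds were sown in pots of standard soil and grown for 14 days under controlled glasshouse conditions. Seedlings were sprayed with the compound emulsified via acetone and IF50 and diluted in sodium lauryl ether sulphate (0.25% or 1%) with 1% ammonium sulphate. They were kept at 24/16 °C with 14 h light and 65% humidity and rated for damage on a 0–100 scale after 13 days.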

[2] = test system: Lolium perenne (LOLPE); details: Lolium perenne, post-emergence, 312 h, evaluated after 13 days, read-out: Control of weed species LOLPE after post-emergence application (100=total damage to plant; 0=no damage to plant); for pest or weed control at 500 g/ha: application rate 500 g/Ha
Outline: as §1

[3] = test system: Eleusine indica (ELEIN); details: Eleusine indica, post-emergence, 312 h, evaluated after 13 days, read-out: Control of weed species ELEIN after post-emergence application (100=total damage to plant; 0=no damage to plant); for pest or weed control at 500 g/ha: application rate 500 g/Ha
Outline: as §1

[4] = test system: Digitaria sanguinalis (DIGSA); details: Digitaria sanguinalis, post-emergence, 312 h, evaluated after 13 days, read-out: Control of weed species DIGSA after post-emergence application (100=total damage to plant; 0=no damage to plant); for pest or weed control at 500 g/ha: application rate 500 g/Ha
Outline: as §1

[5] = test system: Setaria faberi (SETFA); details: Setaria faberi, post-emergence, 312 h, evaluated after 13 days, read-out: Control of weed species SETFA after post-emergence application (100=total damage to plant; 0=no damage to plant); for pest or weed control at 500 g/ha: application rate 500 g/Ha
Outline: as §1

[6] = test system: Euphorbia heterophylla (EPHHL); details: Euphorbia heterophylla, post-emergence, 312 h, evaluated after 13 days, read-out: Control of weed species EPHHL after post-emergence application (100=total damage to plant; 0=no damage to plant); for pest or weed control at 500 g/ha: application rate 500 g/Ha
Outline: as §1

[7] = test system: Echinochloa crus-galli (ECHCG); details: Echinochloa crus-galli, post-emergence, 312 h, evaluated after 13 days, read-out: Control of weed species ECHCG after post-emergence application (100=total damage to plant; 0=no damage to plant); for pest or weed control at 500 g/ha: application rate 500 g/Ha
Outline: as §1

[8] = test system: Amaranthus palmeri (AMAPA); details: Amaranthus palmeri, post-emergence, 312 h, evaluated after 13 days, read-out: Control of weed species AMAPA after post-emergence application (100=total damage to plant; 0=no damage to plant); for pest or weed control at 500 g/ha: application rate 500 g/Ha
Outline: as §1

[9] = test system: Ipomoea hederacea (IPOHE); details: Ipomoea hederacea, post-emergence, 312 h, evaluated after 13 days, read-out: Control of weed species IPOHE after post-emergence application (100=total damage to plant; 0=no damage to plant); for pest or weed control at 500 g/ha: application rate 500 g/Ha
Outline: as §1

Structure (SMILES) | pest or weed control at 500 g/ha [1] [%] | pest or weed control at 500 g/ha [2] [%] | pest or weed control at 500 g/ha [3] [%] | pest or weed control at 500 g/ha [4] [%] | pest or weed control at 500 g/ha [5] [%] | pest or weed control at 500 g/ha [6] [%] | pest or weed control at 500 g/ha [7] [%] | pest or weed control at 500 g/ha [8] [%] | pest or weed control at 500 g/ha [9] [%] | further results
CC(=O)Nc1cccc2cc[n+](CCS(=O)(=O)[O-])nc12 [Compound A107, 2-(8-acetamidocinnolin-2-ium-2-yl)ethanesulfonate] | – | – | – | – | – | – | – | – | – | pest or weed control at 130 g/ha ([1]; application rate 130 g/Ha): 40%; pest or weed control at 130 g/ha ([2]; application rate 130 g/Ha): 40%; pest or weed control at 130 g/ha ([3]; application rate 130 g/Ha): 40%; pest or weed control at 130 g/ha ([4]; application rate 130 g/Ha): 70%; pest or weed control at 130 g/ha ([5]; application rate 130 g/Ha): 70%; pest or weed control at 130 g/ha ([6]; application rate 130 g/Ha): 50%; pest or weed control at 130 g/ha ([7]; application rate 130 g/Ha): 80%; pest or weed control at 130 g/ha ([8]; application rate 130 g/Ha): 60%; pest or weed control at 130 g/ha ([9]; application rate 130 g/Ha): 40%
CNC(=O)c1c[n+](CCS(=O)(=O)[O-])nc2ccccc12 [Compound A13] | 50 | 20 | 30 | 50 | 60 | 20 | 50 | 40 | 20 | –
COC(=O)c1ccc2cc[n+](CCS(=O)(=O)[O-])nc2c1 [Compound A108] | 40 | 10 | 30 | 70 | 10 | 50 | 20 | 20 | 10 | –
CS(=O)(=O)[N-]C(=O)CCC[n+]1ccc2ccccc2n1 [Compound A30] | – | – | – | – | – | – | – | – | – | pest or weed control at 1000 g/ha ([1]; application rate 1000 g/Ha): 60%; pest or weed control at 1000 g/ha ([2]; application rate 1000 g/Ha): 10%; pest or weed control at 1000 g/ha ([3]; application rate 1000 g/Ha): 20%; pest or weed control at 1000 g/ha ([4]; application rate 1000 g/Ha): 20%; pest or weed control at 1000 g/ha ([5]; application rate 1000 g/Ha): 20%; pest or weed control at 1000 g/ha ([6]; application rate 1000 g/Ha): 50%; pest or weed control at 1000 g/ha ([7]; application rate 1000 g/Ha): 10%; pest or weed control at 1000 g/ha ([8]; application rate 1000 g/Ha): 70%; pest or weed control at 1000 g/ha ([9]; application rate 1000 g/Ha): 10%
